Test results from patent US20260015339A1, “CALIX[4]ARENES WITH HIGH ANTICANCER ACTIVITY” (UNIVERSITE GRENOBLE ALPES, priority 2023, published 2026).

What was measured:
[1] = Cu^+ transport into liposomes with encapsulated BCS; details: POPC/cholesterol 7:3 LUVs, calix[4]arene to lipid 1:1000, 50 μM copper gradient, F/F0 after 600 s
Protocol: The ability of the examples of calix[4]arenes of the invention and the comparative examples to be delivered into a lipidic bilayer membrane of a liposome from a solution and their capacity to then act as a transporter of Cu^+ was evaluated using bathocuproine disulphonate (hereafter abbreviated “BCS”) encapsulated in large unilamellar vesicles (LUVs, also referred to as liposomes) composed of 1-palmitoyl-2-oleoyl-sn-glycero-3-phosphocholine and cholesterol in a 7:3 ratio.
BCS is a fluorescent water soluble phenantroline derivative that can be used as fluorescent dye for the sensing of Cu^+ through the formation of a non-fluorescent 2:1 complex.
Stock solution of lipids were prepared using deacidified CHCl3 and stored in a freezer. CHCl3 was deacidified by passing through activated basic alumina. The lipids used to prepare the liposomes were 2-oleoyl-1-palmitoyl-sn-glycero-3-phosphocholine (POPC), (purity ≥99%) and cholesterol (purity of 95%). 50 mM sodium phosphate buffer were prepared with Millipore water at pH 7 (±0.1) by mixing the solution of the mono- and the di-protonated phosphate salts. The solution of the dye (BCS) was prepared at 0.5 mM concentration in phosphate buffer.
The lipids solutions were mixed in different ratios in a 5 mL round bottom flask. The POPC/cholesterol molar ratio was 7:3 in all experiments. The total amount of lipids per batch varied depending on the amount of liposomes solution required for the experiment. After mixing the lipid solutions in a round bottom flask, the chloroform was evaporated under a gentle air flow and the resulting lipid film was dried at high vacuum for at least an hour. 500 μL of the BCS solution in phosphate buffer and a magnetic stir bar were added to the flask. The flask was then sonicated for 30 seconds and placed under magnetic agitation for at least an hour. The solution was frozen with liquid nitrogen and heated back to room temperature with warm water ten times to form large unilamellar vesicles (LUVs). The liposome solution was extruded 29 times, using an extrusion kit equipped with a membrane with 200 nm pores. Subsequently, the solution was eluted with the buffer solution used for the experiment through a size exclusion column (Sephadex G-25) to remove the external BCS and then diluted with phosphate buffer to obtain a concentration of 0.4 mM in lipids.
Solutions of the calix[4]arenes were prepared at a concentration of 0.24 mM in DMSO and 5 μL of the solution was added 2 minutes before each transport measurement.
Alternatively, calix[4]arenes were pre-incorporated by combining the calix[4]arene (dissolved in chloroform) with the lipids prior to the evaporation of the chloroform to obtain a lipid film. The concentrations and volumes were chosen to obtain a calix[4]arene to lipid of 1:1000.
Fluorescence measurements were performed with a Horiba FluoroMax 4 spectrometer using a 4-faced quartz cuvette (10 mm×10 mm). For the Cu^+ transport assay, the excitation was set at 278 nm and emission was recorded at 393 nm. These values correspond to the excitation and emission maxima of BCS encapsulated inside LUVs.
The Cu^+ solutions added to the liposomes were obtained by dissolving Cu(MeCN)4BF4 in MeCN at 15.25 mM concentration. The copper solution was then diluted by a factor 5 in a phosphate buffer during the first 30 seconds of the experiment to reach a copper concentration of 3.05 mM. 50 μL of the diluted copper solution was added to 3 mL of liposomes, resulting in a copper gradient of 50 μM. The fluorescence level was monitored for 600 seconds after the addition of the copper solution.
For each run the initial plateau and the initial vertical drop (due to the binding of the exterior dye with Cu^+ and the dilution, 1-4 seconds after the addition) were removed. Then the signal was normalised by dividing the fluorescence values (F) by the value at t=0 second (F0). […]

[2] = system: A549 human lung cancer cells; assay: MTS cytotoxicity assay on A549; type: cell-based; details: A549, 72 hours of treatment
Protocol: A549 human lung cancer cells were seeded in 96-well plates together with the calix[4]arene of the formula (2). Cells were grown in RPMI-1640 supplemented with GlutaMAX™ (Gibco™) and fetal calf serum (FCS, 10%) and treated with a broad range of concentrations of the calix[4]arene of the formula (2). After 72 hours of treatment, the cytotoxicity was measured by means of the IC50 value, using the kit “CellTiter 96R AQuous One Solution Cell Proliferation Assay (MTS)” from Promega™. Following 30 minutes of incubation with the MTS reagent, the endpoint measurements were done in triplicate at 485 nm, using a fluorescence plate reader.
A549 human lung cancer cells were seeded in 96-well plates together with the compound of the 2nd comparative example of the formula (XI). Cells were grown in RPMI-1640 supplemented with GlutaMAX™ (Gibco™) and fetal calf serum (FCS, 10%) and treated with a broad range of concentrations of the 2nd comparative example of the formula (XI). After 72 hours of treatment, the cytotoxicity was measured by means of the IC50 value, using the kit “CellTiter 96R AQuous One Solution Cell Proliferation Assay (MTS)” from Promega™. Following 30 minutes of incubation with the MTS reagent, the endpoint measurements were done in triplicate at 485 nm, using a fluorescence plate reader. […]

[3] = system: PC9 human lung cancer cells; assay: MTS cytotoxicity assay on PC9; type: cell-based; details: PC9, 72 hours of treatment
Protocol: PC9 human lung cancer cells were seeded in 96-well plates together with the calix[4]arene of the formula (2). Cells were grown in RPMI-1640 supplemented with GlutaMAX™ (Gibco™) and fetal calf serum (FCS, 10%) and treated with a broad range of concentrations of the calix[4]arene of the formula (2). After 72 hours of treatment, the cytotoxicity was measured by means of the IC50 value, using the kit “CellTiter 96R AQuous One Solution Cell Proliferation Assay (MTS)” from Promega™. Following 30 minutes of incubation with the MTS reagent, the endpoint measurements were done in triplicate at 485 nm, using a fluorescence plate reader.
PC9 human lung cancer cells were seeded in 96-well plates together with the 2nd comparative example of the formula (XI). Cells were grown in RPMI-1640 supplemented with GlutaMAX™ (Gibco™) and fetal calf serum (FCS, 10%) and treated with a broad range of concentrations of the compound of the 2nd comparative example of the formula (XI). After 72 hours of treatment, the cytotoxicity was measured by means of the IC50 value, using the kit “CellTiter 96R AQuous One Solution Cell Proliferation Assay (MTS)” from Promega™. Following 30 minutes of incubation with the MTS reagent, the endpoint measurements were done in triplicate at 485 nm, using a fluorescence plate reader. […]

[4] = system: H322 lung carcinoma cells; assay: MTS cytotoxicity assay on H322; type: cell-based; details: NCI-H322; H322, 72 hours of treatment
Protocol: H322 lung carcinoma cells were seeded in 96-well plates together with the calix[4]arene of the formula (2). Cells were grown in RPMI-1640 supplemented with GlutaMAX™ (Gibco™) and fetal calf serum (FCS, 10%) and treated with a broad range of concentrations of the calix[4]arene of the formula (2). After 72 hours of treatment, the cytotoxicity was measured by means of the IC50 value, using the kit “CellTiter 96R AQuous One Solution Cell Proliferation Assay (MTS)” from Promega™. Following 30 minutes of incubation with the MTS reagent, the endpoint measurements were done in triplicate at 485 nm, using a fluorescence plate reader.
H322 lung carcinoma cells were seeded in 96-well plates together with the compound of the 2nd comparative example of the formula (XI). Cells were grown in RPMI-1640 supplemented with GlutaMAX™ (Gibco™) and fetal calf serum (FCS, 10%) and treated with a broad range of concentrations of the 2nd comparative example of the formula (XI). After 72 hours of treatment, the cytotoxicity was measured by means of the IC50 value, using the kit “CellTiter 96R AQuous One Solution Cell Proliferation Assay (MTS)” from Promega™. Following 30 minutes of incubation with the MTS reagent, the endpoint measurements were done in triplicate at 485 nm, using a fluorescence plate reader.
H322 lung carcinoma cells were seeded in 96-well plates together with the 1st comparative example of the formula (X). Cells were grown in RPMI-1640 supplemented with GlutaMAX™ (Gibco™) and fetal calf serum (FCS, 10%) and treated with a broad range of concentrations of the compound of the formula (X). After 72 hours of treatment, the cytotoxicity was measured by means of the IC50 value, using the kit “CellTiter 96R AQuous One Solution Cell Proliferation Assay (MTS)” from Promega™. Following 30 minutes of incubation with the MTS reagent, the endpoint measurements were done in triplicate at 485 nm, using a fluorescence plate reader.
H322 lung carcinoma cells were seeded in 96-well plates together with the tested calix[4]arenes. Cells were grown in RPMI-1640 supplemented with GlutaMAX™ (Gibco™) and fetal calf serum (FCS, 10%) and treated with a broad range of concentrations of the tested calix[4]arenes. After 72 hours of treatment, the cytotoxicity was measured by means of the IC50 value, using the kit “CellTiter 96R AQuous One Solution Cell Proliferation Assay (MTS)” from Promega™. Following 30 minutes of incubation with the MTS reagent, the endpoint measurements were done in triplicate at 485 nm, using a fluorescence plate reader.

[5] = system: Non-malignant MRC5-SVII cells; assay: MTS cytotoxicity assay on MRC5-SVII; type: cell-based; details: 72 hours of treatment
Protocol: Cells were grown in Minimal Essential Medium—Non Essential Amino Acids (MEM NEAA) culture medium from Gibco™, supplemented with sodium pyruvate ([…]), and fetal calf serum (FCS, 10%) and treated with a broad range of concentrations of the 2nd comparative example of the formula (XI).

[6] = Cu^+ binding by 1H NMR titration; details: 1H NMR titration with Cu(MeCN)4BF4, CD3CN/CDCl3 4/1, 298 K
Protocol: Binding abilities and complexation constants of the examples of calix[4]arenes of the present invention and the comparative examples with Cu^+ were evaluated by ^1H NMR titrations at 298 K using copper(I)tetrakis(acetronitrile)tetrafluoroborate.
For example, for each separate calix[4]arene a stock solution of the tested calix[4]arene was prepared in a CD3CN/CDCl3, 4/1 mixture. Using this stock solution, a Cu(MeCN)4BF4 solution was prepared and added by steps of 0.25 equivalent of copper(I) up until 1 equivalent and then by steps of 0.5 equivalent until a total of at least 2 equivalents. ^1H NMR spectra were recorded at a 400 MHz spectrometer at 298 K for the stock solutions of the calix[4]arenes and after each addition of Cu(MeCN)4BF4.
Calix[4]arenes for which a gradual change of the chemical shifts of the ^1H NMR signals (>0.1 ppm for at least one of the signals) was observed upon addition of up to 4-5 equivalents of Cu(MeCN)4BF4 were considered to show weak binding.

[7] = system: Hepatocellular carcinoma (HepG2/C3A) cells; assay: MTT cytotoxicity assay (DL50); type: cell-based; details: 24 hours of incubation
Protocol: Cytotoxicity was evaluated using the MTT assay. 1.10^4 cells per well were seeded in a flat-bottom 96-well plate and were incubated for 48 hours at 37° C. with 5% CO2 before addition of the different calix[4]arenes at concentrations up to 200 μM. In all experiments, each condition was performed in triplicate in the plate. Besides, each experiment was done three times independently. After 24 hours of incubation in presence of the compounds, medium was discarded, cells were rinsed with PBS and 100 μL of medium containing 0.5 mg/mL of MTT was added to each well. After 30 minutes of incubation at 37° C., MTT solution was discarded and formazan crystals formed were dissolved in 150 μL of 4 mM HCl, 0.1% NP40 in isopropanol. The absorbance in the wells were read in a microplate reader (Tecan microplate reader-550) at 570 nm.

SMILES: CCCOc1c2cccc1Cc1cccc(c1OCCC)Cc1cccc(c1OCCC)Cc1cccc(c1OCCC)C2 [(XI)]
- Cu^+ transport [1]: No (means that no significant decrease of the fluorescence of encapsulated BCS was observed upon addition of Cu^+ to the liposomes (F/F0 >0.65 after 600 s) when the calix[4]arene was either delivered from a solution in DMSO to liposomes or pre-incorporated into the liposomes)
- IC50 [2]: > 50 µM
- IC50 [3]: > 50 µM
- IC50 [4]: > 50 µM
- IC50 [5]: > 20 µM
- Cu^+ binding [6]: Not significant (means that no significant changes of chemical shifts (<0.1 ppm) were observed upon addition of 4-5 equivalents of Cu(MeCN)4BF4)
- IC50 [7]: 184 µM
